Assay results: ChEMBL document CHEMBL1201862, “PubChem BioAssay data set” (2004)
Calls of active or inactive are those of the source.

What was measured:
[1] = biological target: Prothrombin (Homo sapiens, UniProt P00734); experiment: Thrombin 1536 HTS Dose Response Confirmation. [Related pubchem assays: 1046 (Thrombin 1536 HTS; hits were confirmed in this assay)]; type: functional
[2] = biological target: T1, Heat shock factor protein 1 (Mus musculus, UniProt P38532); experiment: HSF1 potentiators in luciferase reporter cells, confirmation, cell-based, NIH3T3, luminescence, dose retest (AID 435004); type: functional;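 note: stress induced by proteasome inhibitor MG132 added 30 min after compound; luciferase reporter driven by HSF1 response element in NIH3T3 cells; actives raise luminescence as potentiators of the MG132 stress response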
T1 sequence (P38532 whole entry): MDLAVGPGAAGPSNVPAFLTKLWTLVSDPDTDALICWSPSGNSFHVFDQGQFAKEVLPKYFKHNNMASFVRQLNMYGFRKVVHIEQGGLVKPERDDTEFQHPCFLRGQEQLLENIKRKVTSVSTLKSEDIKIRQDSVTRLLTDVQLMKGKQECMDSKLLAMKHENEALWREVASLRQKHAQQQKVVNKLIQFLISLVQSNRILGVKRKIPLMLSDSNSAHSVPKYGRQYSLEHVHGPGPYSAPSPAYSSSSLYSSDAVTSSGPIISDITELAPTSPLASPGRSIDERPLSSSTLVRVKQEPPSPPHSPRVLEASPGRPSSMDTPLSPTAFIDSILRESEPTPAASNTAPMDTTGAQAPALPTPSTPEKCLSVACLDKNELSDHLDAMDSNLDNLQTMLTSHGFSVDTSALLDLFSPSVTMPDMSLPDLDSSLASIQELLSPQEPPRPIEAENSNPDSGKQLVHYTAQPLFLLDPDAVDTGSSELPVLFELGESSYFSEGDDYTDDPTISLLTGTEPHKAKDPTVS

[3] = Shn3 3'UTR reporter inhibitors, dose response, cell-based, Clone20 osteoblasts, firefly luciferase, cherry-picked (AID 624132); type: functional;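 note: firefly luciferase luminescence from reporter carrying the Shn3 3'UTR in osteoblasts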
[4] = HepG2 cell cytotoxicity, dose response, cytotoxicity control for Shn3 inhibitor project, CellTiter-Glo, cherry-picked (AID 624134); type: functional, cell-based
[5] = control 3'UTR Renilla luciferase suppression, dose response, counter-screen for Shn3 inhibitor project, cell-based, Clone20-Shn3RL, cherry-picked (AID 624133); type: functional
[6] = cytotoxicity in HPDE-C7 cells, cell-based, fluorescence, HTS (AID 430); type: functional; conditions: Homo sapiens
[7] = cytotoxicity in KRAS-transformed pancreatic duct cells, primary screen, cell-based, fluorescence, HTS (AID 431); type: functional; conditions: Homo sapiens;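 note: cell line used: HPDE-C7K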
[8] = tested on: Streptococcus sp. 'group A'; experiment: growth inhibition of control SK(-) GAS strain, dose response, counter-screen for streptokinase expression inhibitor project, luminescence, kanamycin, BacTiterGlo, confirmation (AID 1900); type: functional, organism-based
[9] = tested on: Streptococcus; experiment: Group A Streptococcus viability loss, dose response, counter-screen for streptokinase expression inhibitor project, luminescence, BacTiterGlo (AID 1915); type: functional, organism-based;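 note: potency for reduction of bacterial viability or growth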
[10] = Luminescence Cell-Based Dose Retest to Confirm Inhibitors of Cancer Stem Cells. [Related pubchem assays (depositor defined):AID2717, AID2721]; type: functional; conditions: Homo sapiens
[11] = microbe, parasite or virus in culture; type: functional; conditions: Mycobacterium tuberculosis
[12] = growth suppression of PTEN-null colon cells, dose response, cell-based, HCT116 PTEN knockout (AID 1047); type: functional;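 note: HCT116 colon tumor cells with PTEN knocked out; cells exposed to compound for 60 hours before readout; potency for loss of cell viability measured by luminescence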
[13] = growth suppression of beta-catenin-knockout colon cells, dose response, cell-based, HCT116, human colon tumor (AID 1045); type: functional;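 note: HCT116 colon tumor cells with beta catenin knocked out; cells exposed to compound for 60 hours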

COCCCNC(=O)/C(=C\c1cccn1C)NC(=O)c1cccs1
IC50 [1]: > 50 µM (inconclusive)

Cc1cc(NS(=O)(=O)c2ccc(NC(=O)CSc3nnc(-c4ccco4)n3N)cc2)nc(C)n1
IC50 [1]: > 50 µM (not active)

Cc1cccc(N2CCN(C(=O)CSCc3c(C)noc3C)CC2)c1C
EC50 [2]: 243 µM (active) | AC50 [3]: 2.41 µM (active) | AC50 [4]: 36.3 µM (active) | AC50 [5]: 3.48 µM (active)

c1ccc(-c2cc3nc(NCC4CC4)nc(NCC4CCCCC4)c3s2)cc1
AC50 [3]: 2.67 µM (active) | AC50 [4]: 9.15 µM (active) | AC50 [5]: 3.12 µM (active)

Cc1cc(C)n(S(=O)(=O)/C=C/c2ccccc2)n1
EC50 [6]: 9.1 µM (active) | EC50 [7]: 9.65 µM (active) | EC50 [2]: 12.1 µM (active)

O=C(Nc1ccc(Cc2ccncc2)cc1)c1ccco1
IC50 [1]: > 50 µM (not active)

CCCOC(=O)c1ccc(Oc2c(C)n[nH]c2-c2ccc(OCC)cc2O)cc1
EC50 [8]: 11.1 µM (active) | EC50 [6]: 11.9 µM (active) | EC50 [7]: 7.31 µM (active) | EC50 [9]: > 150 µM (not active) | AC50 [10]: 3.66 µM (active)

C=C(CCC(=O)c1ccccc1)C(=O)c1ccccc1
CC50 [11]: 17.7 µM (active) | EC50 [12]: 9.9 µM (active) | IC50 [1]: > 50 µM (not active) | EC50 [13]: 8.26 µM (active) | EC50 [2]: 15 µM (active)

O=C(c1cc2ccccc2[nH]1)N1CCOCC1
IC50 [1]: > 50 µM (not active)
